Results from ChEMBL document CHEMBL1128683, “Identification of 3,5-dihydro-2-aryl-1H-pyrazolo[3,4-c]quinoline-1,4(2H)-diones as novel high-affinity glycine site N-methyl-D-aspartate antagonists” (J Med Chem, 1995).
pIC50: −log10 of the molar value.

molecular target: Glutamate receptor ionotropic, NMDA 1 (Rattus norvegicus, UniProt P35439); test: Inhibition of [3H]-3 binding to the glycine site on the NMDA receptor in Rat cortical membranes

| Structure (SMILES) | pIC50 |
| --- | --- |
| O=c1[nH]c2ccccc2c2c(=O)n(-c3ccc(Cl)cc3)[nH]c12 | 6.86 |
| COc1ccc(-n2[nH]c3c(=O)[nH]c4cc(Cl)ccc4c3c2=O)cc1 | 8.48 |
| Cn1[nH]c2c(=O)[nH]c3ccccc3c2c1=O | 5.69 |
| O=c1[nH]c2cc(Cl)ccc2c2c(=O)n(-c3ccccc3)[nH]c12 | 7.80 |
| Cn1c2c(=O)[nH]c3ccccc3c2c(=O)n1-c1ccccc1 | < 7.00 |

Second part, the molecule after the results:

| pIC50 | Structure (SMILES) |
| --- | --- |
| 6.21 | O=c1[nH]c2ccccc2c2c(=O)n(-c3ccccc3Cl)[nH]c12 |
| 6.25 | O=c1[nH]c2ccccc2c2c(=O)n(Cc3ccccc3)[nH]c12 |
| 6.87 | O=c1[nH]c2ccccc2c2c(=O)n(-c3ccccc3)[nH]c12 |
| 6.79 | O=c1[nH]c2ccccc2c2c(=O)n(-c3cccc(Cl)c3)[nH]c12 |
| 7.06 | COc1ccc(-n2[nH]c3c(=O)[nH]c4ccccc4c3c2=O)cc1 |
